Earlier results, collected in US20080085301A1, “Method for transdermal administration of antimicrobial medications” (priority 2005, published 2008).

Test system: Streptococcus pneumoniae
Details: based on Streptococcus pneumoniae; in vitro

Row | Compound | Approximate MIC
1 | C[C@@H](O)[C@H]1C(=O)N2C(C(=O)O)=C(S[C@@H]3CN[C@H](C(=O)N(C)C)C3)[C@H](C)[C@H]12 [Meropenem] | ~1 µg/mL
2 | CN[C@H](CC(C)C)C(=O)N[C@H]1C(=O)N[C@@H](CC(N)=O)C(=O)N[C@H]2C(=O)N[C@H]3C(=O)N[C@H](C(=O)N[C@H](C(=O)O)c4cc(O)cc(O)c4-c4cc3ccc4O)[C@H](O)c3ccc(c(Cl)c3)Oc3cc2cc(c3O[C@@H]2O[C@H](CO)[C@@H](O)[C@H](O)[C@H]2O[C@H]2C[C@](C)(N)[C@H](O)[C@H](C)O2)Oc2ccc(cc2Cl)[C@H]1O [Vancomycin] | ~16 µg/mL
3 | CC(=O)NC[C@H]1CN(c2ccc(N3CCOCC3)c(F)c2)C(=O)O1 [Linezolid] | ~2 µg/mL
4 | [H]/N=C(/N)N[C@H]1[C@H](O)[C@@H](O)[C@H](O[C@@H]2O[C@@H](C)[C@](O)(C=O)[C@H]2O[C@@H]2O[C@@H](CO)[C@H](O)[C@@H](O)[C@@H]2NC)[C@@H](N/C(N)=N\[H])[C@@H]1O [Streptomycin] | ~2 µg/mL
5 | O=C(N[C@H](CO)[C@H](O)c1ccc([N+](=O)[O-])cc1)C(Cl)Cl [Chloramphenicol] | ~4 µg/mL
6 | CO[C@H]1/C=C/O[C@@]2(C)Oc3c(C)c(O)c4c(O)c(c(/C=N/N5CCN(C)CC5)c(O)c4c3C2=O)NC(=O)/C(C)=C\C=C\[C@H](C)[C@H](O)[C@@H](C)[C@@H](O)[C@@H](C)[C@H](OC(C)=O)[C@@H]1C [Rifampin] | ~0.5 µg/mL
7 | N[C@@H]1CON=C1O [Cycloserine] | ~32 µg/mL
8 | CCCCCCCCCC(=O)N[C@@H](Cc1c[nH]c2ccccc12)C(=O)N[C@H](CC(N)=O)C(=O)N[C@@H](CC(=O)O)C(=O)N[C@@H]1C(=O)NCC(=O)N[C@@H](CCCN)C(=O)N[C@@H](CC(=O)O)C(=O)N[C@H](C)C(=O)N[C@@H](CC(=O)O)C(=O)NCC(=O)N[C@H](CO)C(=O)N[C@@H]([C@H](C)CC(=O)O)C(=O)N[C@@H](CC(=O)c2ccccc2N)C(=O)O[C@@H]1C [Daptomycin] | ~0.5 µg/mL
